Experimental data published in US10399948B2, “Negative allosteric modulators of metabotropic glutamate receptor 3” (Vanderbilt University, priority 2015, dated 2019).
Like-named read-outs stand apart in the source and are kept apart here.

Assays:
mouse = conditions: normal animals; cited from earlier work
[1] = cited from earlier work
[2] = in vivo; cited from earlier work
mice = conditions: cited from earlier work
[3] = test system: social isolation-reared mice; conditions: cited from earlier work
[4] = test system: olfactory bulbectomized rats; conditions: repeated administration for 14 days; cited from earlier work
rat = conditions: normal animals; cited from earlier work
[5] = test system: Aβ-induced neurodegeneration; conditions: cited from earlier work
C57Bl6/J mice = conditions: FST; cited from earlier work
glioma stem cells (GSC) = conditions: in vitro; cited from earlier work
Helpless (H) mice = conditions: cited from earlier work; for activity in the tail suspension test: Helpless (H) mice
[6] = test system: glioma stem cells (GSC) tumors; conditions: compared with controls; cited from earlier work
[7] = test system: central mGlu2 and mGlu3 receptors; conditions: in vivo; cited from earlier work
[8] = test system: group II mGlu receptors (mGlu2 and mGlu3); conditions: cited from earlier work
schizophrenic patients = conditions: compared to placebo, P<0.001 at week 4; cited from earlier work
rat mGlu5 = rat mGlu5 (Rattus norvegicus (Rat), UniProt P31424); assay: mGlu5 Ca2+ flux assay; format: cell-based; conditions: PAM; for EC50: glutamate EC20, >10,000 = no plateau, >30,000 = no measurable activity, read-out: rat mGlu5 EC50 or IC50; for activity at 30 µM: response at 30 μM test compound as percentage of maximal response to glutamate, read-out: rat mGlu5 Glu max (%)
rat mGlu5, sequence (P31424 21-1203): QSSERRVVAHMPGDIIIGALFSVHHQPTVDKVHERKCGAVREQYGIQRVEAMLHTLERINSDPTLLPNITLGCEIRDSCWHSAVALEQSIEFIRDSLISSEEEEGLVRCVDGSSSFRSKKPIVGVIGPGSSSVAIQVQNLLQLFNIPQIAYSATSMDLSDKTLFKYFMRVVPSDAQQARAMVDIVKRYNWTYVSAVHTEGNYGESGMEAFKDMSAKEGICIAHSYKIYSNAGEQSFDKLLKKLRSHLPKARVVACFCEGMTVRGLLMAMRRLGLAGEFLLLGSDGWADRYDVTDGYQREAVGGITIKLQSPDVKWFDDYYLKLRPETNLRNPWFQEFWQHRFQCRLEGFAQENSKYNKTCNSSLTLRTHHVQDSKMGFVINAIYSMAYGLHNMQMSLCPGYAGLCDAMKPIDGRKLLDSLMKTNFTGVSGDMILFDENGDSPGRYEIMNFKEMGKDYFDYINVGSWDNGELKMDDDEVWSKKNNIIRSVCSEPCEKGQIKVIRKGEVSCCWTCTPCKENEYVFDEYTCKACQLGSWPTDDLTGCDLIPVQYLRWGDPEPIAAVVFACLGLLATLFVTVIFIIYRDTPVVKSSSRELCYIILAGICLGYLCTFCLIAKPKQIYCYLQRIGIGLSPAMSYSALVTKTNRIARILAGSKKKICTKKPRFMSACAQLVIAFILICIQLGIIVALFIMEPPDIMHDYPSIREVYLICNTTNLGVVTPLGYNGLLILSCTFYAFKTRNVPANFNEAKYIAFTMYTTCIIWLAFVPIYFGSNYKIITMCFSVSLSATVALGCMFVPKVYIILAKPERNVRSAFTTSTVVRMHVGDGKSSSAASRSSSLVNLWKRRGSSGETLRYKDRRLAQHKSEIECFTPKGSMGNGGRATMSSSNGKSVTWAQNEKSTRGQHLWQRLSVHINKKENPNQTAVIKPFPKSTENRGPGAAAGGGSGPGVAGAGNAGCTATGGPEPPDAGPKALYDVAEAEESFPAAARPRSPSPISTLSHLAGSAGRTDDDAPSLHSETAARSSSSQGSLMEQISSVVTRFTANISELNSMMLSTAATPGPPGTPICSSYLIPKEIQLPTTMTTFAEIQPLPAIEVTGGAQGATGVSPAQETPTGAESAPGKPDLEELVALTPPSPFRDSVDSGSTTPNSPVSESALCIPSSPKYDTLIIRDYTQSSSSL
Protocol: HEK 293A cells stably expressing rat mGlu5 were plated in black-walled, clear-bottomed, poly-D-lysine coated 384-well plates in 20 μL of assay medium (DMEM containing 10% dialyzed FBS, 20 mM HEPES, 100 units/mL penicillin/streptomycin plus 250 ng/mL Fungizone, and 1 mM sodium pyruvate) at a density of 20K cells/well. The cells were grown overnight at 37° C. in the presence of 5% CO2. The next day, medium was removed and the cells incubated with 20 μL of […] Fluo-4, AM prepared as a 2.3 mM stock in DMSO and mixed in a 1:1 ratio with 10% (w/v) pluronic acid F-127 and diluted in assay buffer (Hank's balanced salt solution, 20 mM HEPES, and 2.5 mM probenecid) for 45 minutes at 37° C. Dye was removed, 20 μL of assay buffer was added, and the plate was incubated for 5 minutes at room temperature.
Ca^2+ flux was measured using the Functional Drug Screening System (FDSS7000, Hamamatsu, Japan). After establishment of a fluorescence baseline for about 3 seconds, the compounds of the present invention were added to the cells, and the response in cells was measured. 2.3 minutes later an EC20 concentration of the mGlu5 receptor agonist glutamate was added to the cells, and the response of the cells was measured for 1.9 minutes; an EC80 concentration of agonist was added and readings taken for an additional 1.7 minutes. All test compounds were dissolved and diluted to a concentration of 10 mM in 100% DMSO. Compounds were then serially diluted 1:3 in DMSO into 10 point concentration response curves, transferred to daughter plates, and further diluted into assay buffer to a 2× stock. Calcium fluorescence measures were recorded as fold over basal fluorescence; raw data was then normalized to the maximal response to glutamate.
The raw data file containing all time points was used as the data source in the analysis template. This was saved by the FDSS as a tab-delimited text file. Data were normalized using a static ratio function (F/F0) for each measurement of the total 360 values per well divided by each well's initial value. Data were then reduced to peak amplitudes (Max−Initial Min) using a time range that starts approximately 3 seconds prior to the glutamate EC20/EC80 addition and continues for approximately 90-120 seconds. This is sufficient time to capture the peak amplitude of the cellular calcium response. Individual amplitudes were expressed as % EMax by multiplying each amplitude by 100 and then dividing the product by the mean of the amplitudes derived from the glutamate ECMax-treated wells. EC50 values for test compounds were generated by fitting the normalized values versus the log of the test compound concentration (in mol/L) using a 4 parameter logistic equation where none of the parameters were fixed. Each of the three values collected at each concentration of test compound were weighted evenly.

rat mGlu3 = rat mGlu3 (Rattus norvegicus (Rat), UniProt P31422); assay: mGlu3 Ca2+ flux assay; format: cell-based; conditions: for IC50: NAM, glutamate EC80, >10,000 = decrease without plateau, >30,000 = no measurable activity; for remaining activity at 30 µM: response at 30 μM test compound as percentage of maximal response to glutamate, read-out: rat mGlu3 Glu max (%)
rat mGlu3, sequence (P31422 23-879): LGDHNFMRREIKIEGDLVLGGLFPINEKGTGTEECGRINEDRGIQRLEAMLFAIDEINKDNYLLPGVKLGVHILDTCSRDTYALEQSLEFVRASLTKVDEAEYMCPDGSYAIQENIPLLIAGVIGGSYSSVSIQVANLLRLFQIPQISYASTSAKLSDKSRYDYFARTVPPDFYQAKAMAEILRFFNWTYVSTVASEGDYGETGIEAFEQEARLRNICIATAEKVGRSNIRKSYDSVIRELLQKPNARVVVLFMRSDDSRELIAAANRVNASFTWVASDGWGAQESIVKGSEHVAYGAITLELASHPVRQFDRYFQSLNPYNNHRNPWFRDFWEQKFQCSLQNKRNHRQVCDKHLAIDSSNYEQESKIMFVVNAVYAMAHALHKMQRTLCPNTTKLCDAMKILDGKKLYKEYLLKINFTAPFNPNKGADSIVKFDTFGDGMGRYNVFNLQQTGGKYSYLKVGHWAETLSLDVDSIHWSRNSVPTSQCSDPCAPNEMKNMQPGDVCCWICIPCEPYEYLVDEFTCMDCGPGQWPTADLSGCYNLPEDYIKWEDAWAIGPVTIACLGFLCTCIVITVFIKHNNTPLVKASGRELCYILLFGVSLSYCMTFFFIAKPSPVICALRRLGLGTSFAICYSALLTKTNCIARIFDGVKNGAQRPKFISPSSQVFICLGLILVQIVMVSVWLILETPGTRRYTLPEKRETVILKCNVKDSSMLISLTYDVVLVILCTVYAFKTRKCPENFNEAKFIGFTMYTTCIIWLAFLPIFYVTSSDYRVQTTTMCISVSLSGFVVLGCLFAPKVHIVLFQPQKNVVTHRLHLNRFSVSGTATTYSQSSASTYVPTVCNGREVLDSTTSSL

rat mGlu2 = rat mGlu2 (Rattus norvegicus (Rat), UniProt P31421); assay: mGlu2 Ca2+ flux assay; format: cell-based; conditions: NAM, glutamate EC80; >30,000 = no measurable activity
rat mGlu2, sequence (P31421 19-872): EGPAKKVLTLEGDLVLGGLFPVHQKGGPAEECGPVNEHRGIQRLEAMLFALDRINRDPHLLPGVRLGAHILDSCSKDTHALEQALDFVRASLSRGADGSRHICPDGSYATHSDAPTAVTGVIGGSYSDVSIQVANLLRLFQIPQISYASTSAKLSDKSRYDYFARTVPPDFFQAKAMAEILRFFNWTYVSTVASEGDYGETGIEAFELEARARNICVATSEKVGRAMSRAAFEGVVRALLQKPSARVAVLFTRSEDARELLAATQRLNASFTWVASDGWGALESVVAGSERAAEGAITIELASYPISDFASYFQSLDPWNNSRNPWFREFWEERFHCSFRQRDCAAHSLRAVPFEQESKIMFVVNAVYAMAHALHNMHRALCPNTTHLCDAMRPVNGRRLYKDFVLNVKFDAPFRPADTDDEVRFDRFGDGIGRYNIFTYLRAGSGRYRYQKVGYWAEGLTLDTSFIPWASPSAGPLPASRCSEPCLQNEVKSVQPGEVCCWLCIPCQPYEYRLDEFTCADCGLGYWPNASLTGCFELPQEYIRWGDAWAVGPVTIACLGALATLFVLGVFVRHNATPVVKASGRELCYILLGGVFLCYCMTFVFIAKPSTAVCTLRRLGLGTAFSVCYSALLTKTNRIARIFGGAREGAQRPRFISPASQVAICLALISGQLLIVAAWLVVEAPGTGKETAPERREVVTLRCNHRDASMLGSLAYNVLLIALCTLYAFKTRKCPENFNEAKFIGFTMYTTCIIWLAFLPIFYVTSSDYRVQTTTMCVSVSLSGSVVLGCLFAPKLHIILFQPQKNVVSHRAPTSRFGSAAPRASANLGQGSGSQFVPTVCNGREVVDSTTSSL

For N[C@]1(C(=O)O)[C@H]2[C@@H](C[C@H]1OCc1ccc(Cl)c(Cl)c1)[C@]2(F)C(=O)O [MGS0039], the antidepressant-like effects (mouse) is listed as “Antidepressant-like effects”, the antidepressant effects ([1]; learned helplessness test/paradigm) is listed as “antidepressant effects” and the “number of escape failures” value ([1]; treatment for 7 days) is listed as “significantly reduced”. For the same compound, the freezing behavior [2] was “significantly decreased”, the marble-burying behavior (mice) was “reduced marble-burying behavior in a significant and dose dependent manner” and the spontaneous locomotor activity (mice) was “no significant change”. The “increased immobility in the FST” value [3] was “reversed”, the “hyperactivity in the open field test” value [4] was “attenuated” and the “learning deficit in the passive avoidance test” value [4] was “attenuated”. For the same compound, the antidepressant-like effects (rat) was “Antidepressant-like effects”.

For CCS(=O)(=O)N(Cc1cccnc1)c1cccc(-c2ccc(C#N)cc2)c1 [LY566332], the Aβ-induced neurodegeneration [5] is listed as “amplified”.

In the case of N[C@](CC1c2ccccc2Oc2ccccc21)(C(=O)O)[C@H]1C[C@@H]1C(=O)O [LY341495], the immobility time (C57Bl6/J mice) is given as “dose-dependently reduced”, the antidepressant-like effects (mouse) is given as “Antidepressant-like effects” and the “proliferation rates and proportion of cells in S phase” value (glioma stem cells (GSC)) is given as “decreased in a time-dependent manner”. The “activity in the tail suspension test” value (Helpless (H) mice) was “active”, the “antidepressant effect in helpless mice” value (Helpless (H) mice; acute administration) was “potent antidepressant effect” and the marble-burying behavior (mice) was “significantly reduce”. For the same compound, the “growth rate and volume of tumors” value [6] was “reduced”, the “hypolocomotor effect of mGlu2/3 agonist LY379268” value [7] was “achieved the same result” and the antidepressant-like effects (rat) was “Antidepressant-like effects”. For the same compound, the “amplification of Aβ-induced neurodegeneration by LY566332” value [5] was “prevented”.

In the case of CCCCCCCOC(=O)[C@@]1(F)[C@@H]2C[C@@H](OCc3ccc(Cl)c(Cl)c3)[C@@](N)(C(=O)O)[C@@H]21 [BCI-838], the “duration of inhibition of group II mGlu receptors” value ([8]; once-daily oral dosing, brain concentration of active metabolite BCI-632) is given as 22 h, the “Dutch APP transgene-associated learning and memory impairment” value ([8]; three months of treatment) is given as “reversed” and the anxiolytic effects ([8]; three months of treatment) is given as “anxiolytic effects”. For the same compound, the “levels of monomeric and oAβ peptides in the hippocampus and cortex” value ([8]; three months of treatment) was “decreased” and the “hippocampal progenitor cell proliferation” value ([8]; wild-type and Alzheimer's diseased mice, 3 months) was “stimulated”.

In the case of N[C@@]1(C(=O)O)CS(=O)(=O)[C@H]2[C@H](C(=O)O)[C@H]21 [LY404039], the “positive and negative symptoms of schizophrenia” value (schizophrenic patients) is listed as “statistically significant improvements”.

In the case of CN1C(=O)CN=C(c2ccccc2)c2cc(Cl)ccc21 [diazepam], the freezing behavior [2] is listed as “significantly decreased”.

For O=c1nc(OCCOc2ccccc2)ccn1-c1cccc(F)c1 [Compound 14, 1-(3-fluorophenyl)-4-(2-phenoxyethoxy)pyrimidin-2(1H)-one], the EC50 (rat mGlu5) was 3540 nM, the activity at 30 µM (rat mGlu5) was 77.5% and the IC50 (rat mGlu3) was 296 nM. It also gave a remaining activity at 30 µM (rat mGlu3) of 1.61% and an IC50 (rat mGlu2) greater than 30000 nM.

With O=c1cc(OCCOc2ncccc2Cl)ccn1-c1ccc(F)cc1 [Compound 54, 4-(2-((3-chloropyridin-2-yl)oxy)ethoxy)-1-(4-fluorophenyl)pyridin-2(1H)-one] the EC50 (rat mGlu5) was 7820 nM, the activity at 30 µM (rat mGlu5) was 94% and the IC50 (rat mGlu3) was 443 nM. For the same compound, the remaining activity at 30 µM (rat mGlu3) was 0.96% and the IC50 (rat mGlu2) was greater than 30000 nM.

With O=c1nc(OCCOc2ccccc2)ccn1-c1ccc(F)cc1 [Compound 17, 1-(4-Fluorophenyl)-4-(2-phenoxyethoxy)pyrimidin-2(1H)-one] the EC50 (rat mGlu5) was 1190 nM, the activity at 30 µM (rat mGlu5) was 96.8% and the IC50 (rat mGlu3) was 211 nM. It also gave a remaining activity at 30 µM (rat mGlu3) of 1.84% and an IC50 (rat mGlu2) greater than 30000 nM.

In the case of Cc1cc(-c2cccc(C3=Nc4cc(C)c(C(F)(F)F)cc4NC(=O)C3)c2)cc(C)n1 [RO4491533], the immobility time (C57Bl6/J mice) is listed as “dose-dependently reduced”, the “activity in the tail suspension test” value (Helpless (H) mice) is listed as “active” and the “hypolocomotor effect of mGlu2/3 agonist LY379268” value [7] is listed as “reversed”.

Work on O=c1cc(OCCOc2cccc(F)c2)ccn1-c1ccc(F)cc1 [Compound 31, 4-(2-(3-fluorophenoxy)ethoxy)-1-(4-fluorophenyl)pyridin-2(1H)-one] yielded an EC50 (rat mGlu5) of 1460 nM, an activity at 30 µM (rat mGlu5) of 93.2% and an IC50 (rat mGlu3) of 514 nM. The remaining activity at 30 µM (rat mGlu3) was 1.95% and the IC50 (rat mGlu2) was greater than 30000 nM.

In the case of CNCCC(Oc1ccc(C(F)(F)F)cc1)c1ccccc1 (stereo not shown) [fluoxetine], the “antidepressant effect in helpless mice” value (Helpless (H) mice; chronic (21 days) treatment) is listed as “full antidepressant effect”.
